The nature of the data set: Gastrointestinal absorption test, blood concentration of ceftriaxone after intra-duodenal administration. It is filed as in vivo, Sprague Dawley rat. To be noted: intra-duodenal 40 mg/kg, normal rats. On the procedure:
Normal rat (Sprague Dawley, male, weighing about 200 g) was ether-anesthetized, and the abdomen was opened. The duodenum was taken and the nanoparticle liquid formulation containing ceftriaxone was administered thereto at 40 mg/kg as ceftriaxone.
The formulations of Examples 6 and Example 7, and Comparative Example 5 were used for test groups. The formulation of Comparative Example 5 is one containing neither ceftriaxone-counter-ion complex nor polymer, and so having lower drug entrapping rate and incapable of controlling drug dissolution compared with that of Example 6.
Blood was gathered from tail vein at 0, 0.5, 1, 1.5, 2, 3 and 4 hours after the drug administration, and analyzed according to ceftriaxone analysis method of the US Pharmacopoeia. The blood was centrifuged at 3000 rpm for 10 minutes, and pretreated by adding the equal amount of acetonitrile thereto.
As reference group 1, ceftriaxone dissolved in water was administered at 40 mg/kg via the same route as Example 6.
As reference group 2, ceftriaxone dissolved in a physiological saline was intravenously injected at 20 mg/kg.

This is an account of results in US7674767B2, “Nanoparticle compositions of water-soluble drugs for oral administration and preparation methods thereof” (Samyang Corporation, priority 2003, dated 2010).

`CO/N=C(\C(=O)N[C@@H]1C(=O)N2C(C(=O)O)=C(CSc3nc(=O)c(=O)[nH]n3C)CS[C@H]12)c1csc(N)n1` [aqueous solution of ceftriaxone, ceftriaxone]: the “absorption of ceftriaxone in vivo” value is “not nearly absorbed”.
